Reference: the NIST ThermoML archive (doi:10.1016/j.jct.2011.04.006)
Several values for one entry are separate records, joined by “and”; a condition that tells them apart may be missing. Identical values can stand only once.

Columns and labels:
[1] = 298.15 K; 101.33 kPa; Liquid; Vibrating tube method
[2] = excess molar enthalpy (molar enthalpy of mixing); xn = mol fraction of the nth substance listed; details: 298.15 K, 101 kPa, Liquid, Flow calorimetry

CCC(C)(C)C [2,2-dimethylbutane]
Details	mass density [kg/m3]
[1]	644.588

CCC(C)(C)C [2,2-dimethylbutane] + CCCCOCCCC
[2]
Details	excess molar enthalpy [kcal/mol]
x2 = 0.05	0.0065
x2 = 0.1	0.0112
x2 = 0.1499	0.015
x2 = 0.2001	0.018
x2 = 0.2502	0.0205
x2 = 0.2996	0.0224
x2 = 0.3501	0.0237
x2 = 0.3998	0.0246
x2 = 0.4497	0.0249
x2 = 0.5003	0.0246
x2 = 0.5004	0.0245
x2 = 0.5499	0.0239
x2 = 0.6002	0.0228
x2 = 0.6498	0.0213
x2 = 0.6999	0.0197
x2 = 0.7501	0.0173
x2 = 0.8	0.0149
x2 = 0.85	0.0119
x2 = 0.9	0.0088
x2 = 0.95	0.00528

CCC(C)(C)C [2,2-dimethylbutane] + CCCOCCC
[2]
Details	excess molar enthalpy [kcal/mol]
x2 = 0.05	0.00906
x2 = 0.1	0.0163
x2 = 0.15	0.0214
x2 = 0.2	0.0261
x2 = 0.2499	0.0298
x2 = 0.2998	0.0328
x2 = 0.3499	0.0349
x2 = 0.3998	0.036
x2 = 0.4501	0.037
x2 = 0.4995	0.037
x2 = 0.5497	0.0361
x2 = 0.6001	0.0347
x2 = 0.65	0.0325
x2 = 0.7001	0.0298
x2 = 0.7503	0.0265
x2 = 0.8001	0.0226
x2 = 0.85	0.0179
x2 = 0.9	0.0127
x2 = 0.95	0.00676

CC(C)C(C)C [2,3-dimethylbutane]
Details	mass density [kg/m3]
[1]	657.023

CC(C)C(C)C [2,3-dimethylbutane] + CCCCOCCCC
[2]
Details	excess molar enthalpy [kcal/mol]
x2 = 0.05	0.00607
x2 = 0.1	0.0104
x2 = 0.1501	0.0141
x2 = 0.2	0.0172
x2 = 0.2502	0.0196
x2 = 0.3	0.0215
x2 = 0.3499	0.0228
x2 = 0.3998	0.0238
x2 = 0.4501	0.0243
x2 = 0.5	0.0243
x2 = 0.5002	0.0242
x2 = 0.5493	0.0239
x2 = 0.5999	0.0229
x2 = 0.6501	0.0217
x2 = 0.7	0.02
x2 = 0.75	0.0181
x2 = 0.8001	0.0159
x2 = 0.85	0.0133
x2 = 0.9001	0.0101
x2 = 0.95	0.00672

CC(C)C(C)C [2,3-dimethylbutane] + CCCOCCC
[2]
Details	excess molar enthalpy
x2 = 0.05	0.00846 kcal/mol
x2 = 0.1	0.0152 kcal/mol
x2 = 0.15	0.0206 kcal/mol
x2 = 0.2001	0.0252 kcal/mol
x2 = 0.25	0.0288 kcal/mol
x2 = 0.3001	0.0321 kcal/mol
x2 = 0.3499	0.0346 kcal/mol
x2 = 0.4	0.0364 kcal/mol
x2 = 0.4498	0.0374 kcal/mol
x2 = 0.4998	0.0377 kcal/mol and 0.0376 kcal/mol
x2 = 0.55	0.0372 kcal/mol
x2 = 0.5999	0.0359 kcal/mol
x2 = 0.6501	0.034 kcal/mol
x2 = 0.7	0.0314 kcal/mol
x2 = 0.7502	0.028 kcal/mol
x2 = 0.8	0.0242 kcal/mol
x2 = 0.85	0.0193 kcal/mol
x2 = 0.9	0.0138 kcal/mol
x2 = 0.95	0.0075 kcal/mol

CCCOCCC [dipropyl ether]
Details	mass density [kg/m3]
[1]	741.977
